Reference: US8084394B2, “Method for the control of harmful micro-organisms and insects in crop protection with means of dipole-electrical air-jet spray-technology, ozonated water and UV-C irradiation” (priority 2003, dated 2011)

What was measured:
[1] = cited from earlier work
[2] = cited from earlier work; remark: listed apart in the source
microorganisms = conditions: cited from earlier work
[3] = stability (half-life) of ozone as gas and in water; format: physicochemical; conditions: new injection technique with inorganic wetting agent; threefold
Experimental: Ozone is a highly unstable molecule in gaseous form which disintegrated in a short period of time (half-life time ca. 20 minutes) again in oxygen.
With this new injection technique of the extensive mixing of ozone with the spray waters and with the combination of an inorganic wetting agent, the ozone concentration in the dissolved gas bubbles can be up to 17% and has a threefold capacity in the water (up to 1 hour) the fact that ozone gas is transforming to oxygen.
The half-life time of Ozone in water is approximately 2 minutes, in other words the ozone concentration in water is reduced by half every 2 minutes.

In the case of `O=[O+][O-]` [Ozone], the half-life time ([1]; gaseous form, disintegration to oxygen) is given as “ca. 20 minutes”, the “half-life time of Ozone in water” value ([1]; in water) is given as “approximately 2 minutes” and the “exposition concentration unproblematic for permanent exposure” value [2] is given as 0.1 mg per m3/air. The “speed of destruction of microorganisms relative to chlorine” value (microorganisms; faster than chlorine) was 3125 times, the “reactivity relative to chlorine” value (microorganisms; more reactive than chlorine) was 51 times and the “capacity (persistence) of ozone in the water” value [3] was “up to 1 hour”.
